Assay results: patent US11253593B2, “Granulated anthelmintic preparations and delivery systems” (Argenta Innovation Limited, priority 2009, dated 2022)
Like-named read-outs stand apart in the source and are kept apart here.

Tests used:
[1] = Stability trial post mix of reconstituted abamectin liquid concentrate; format: physicochemical
Protocol: The stability of the reconstituted abamectin was investigated after storage at 20-25° C. for 4 days.

[2] = in vivo
Protocol: A cross-over study was performed to determine the blood plasma concentrations of abamectin, oxfendazole and levamisole following oral treatment with reconstituted granule product containing these three anthelmintics.
Eight female romney sheep of similar age and body weight were used. The criteria for selection was to include animals that had not been dosed with a persistent anthelmintic formulation within 6 months of selection for the trial. Persistent anthelmintics include slow release capsules (e.g. Bionic), injectable or oral forms of moxidectin and closantel. Sheep were acclimated to the study site for 14 days before treatment.
Each sheep was randomly assigned to the treatment group and received one treatment and then the alternate treatment 21 days later.
The study procedures were as follows: • sheep were weighed using calibrated scales on Day −1 for weight ranking and allocation to treatment groups. […] Granules were weighed and added with the calculated volume of water to a 2 litre schott bottle and inverted a number of times until the granules were wetted and fully dispersed. On the morning of treatment the schott bottle was again gently inverted 3 or 4 times to ensure a homogeneous mix and approximately 100 mL was decanted from which the syringe was filled for dosing. • Treatments were administered on Day 0 and Day 21 at a dose volume of 1 ml/5 kg. Dosing was done using a 12 mL graduated syringe. Dose volume and time of administration was recorded and checked for each sheep. • Blood samples were collected before treatment, and after treatment at 0.5, 1, 2, 6, 8, 12, 15, 24 and 36 hrs.
Oxfendazole plasma levels are presented as two separate plasma metabolites: oxfendazole and fenbendazole, and the total of these two expressed as “total-oxfendazole”. All plasma metabolite units are presented as mg/kg

[3] = In-use stability, physico-chemical, of reconstituted dual active drug product; conditions: reconstituted drug product of 4.1; storage at 30 and 40° C. for 1 month
Protocol: The stability of reconstituted drug product was investigated after storage at 30 and 40° C. for 1 month.

[4] = In-use suspendability of reconstituted granule (oxfendazole as marker); format: physicochemical; conditions: reconstituted granule of 4.1 in water 1.1 kg/5 L
Protocol: The concentration of the reconstituted granule in water was 1.1 kg/5 L. Oxfendazole was chosen as a marker compound for drug suspension stability.
(Levamisole Fully Soluble)
2 h: At the top was 96 mg/g and at the bottom was 105.2 mg/g
4 h: At the top was 98 mg/g and at the bottom was 99 mg/g
4 days: At the top was 95.7 mg/g and at the bottom was 98 mg/g

[5] = Chemical and physical stability of abamectin in reconstituted triple active formulation; format: physicochemical; conditions: reconstituted with water, triple active formulation 6.1; storage at 30 and 40° C. for 1 month
Protocol: When reconstituted with water, the sstability of abamectin in the reconstituted triple active formulation was investigated after storage at 30 and 40° C. for 1 month.

[6] = female, Romney, sheep, in vivo, po
[7] = oral 1 ml/5 kg, pooled mean of 8 sheep, oxfendazole comparison
[8] = oral 1 ml/5 kg, pooled mean of 8 sheep, total oxfendazole comparison

OCc1ccccc1 [benzyl alcohol]
Degradation after reconstitution [1]: some degradation

COC(=O)Nc1nc2ccc(Sc3ccccc3)cc2[nH]1 [fenbendazole]
Tmax, plasma fenbendazole (metabolite) [2, 6]: 12 h | Cmax, plasma fenbendazole (metabolite) ([2]; sheep, in vivo, po): 0.209 mg/kg

c1ccc([C@H]2CN3CCSC3=N2)cc1 [levamisole]
Tmax [2, 6]: 1 h | Cmax, plasma levamisole ([2]; sheep, in vivo, po): 1.445 mg/kg | Chemical degradation [3]: less than 2%

COC(=O)Nc1nc2cc([S+]([O-])c3ccccc3)ccc2[nH]1 (stereo not shown) [oxfendazole]
Cmax, plasma oxfendazole [2, 7]: 0.792 mg/kg | Tmax, plasma oxfendazole [2, 7]: 15 h | Cmax, plasma total oxfendazole (oxfendazole + fenbendazole) [2, 8]: 0.984 mg/kg | Tmax, plasma total oxfendazole (oxfendazole + fenbendazole) [2, 8]: 12 h | Oxfendazole concentration at the bottom ([4]; 2 h): 105.2 mg/g | Oxfendazole concentration at the top ([4]; 2 h): 96 mg/g | Oxfendazole concentration at the bottom ([4]; 4 h): 99 mg/g | Oxfendazole concentration at the top ([4]; 4 h): 98 mg/g | Oxfendazole concentration at the bottom ([4]; 4 days): 98 mg/g | Oxfendazole concentration at the top ([4]; 4 days): 95.7 mg/g | Oxfendazole concentration, initial ([4]; initial): 100 mg/g | Chemical degradation [3]: no chemical degradation

abamectin
Degradation of abamectin [5]: less than 2% | Tmax, plasma abamectin ([2]; oral 1 ml/5 kg, pooled mean of 8 sheep, abamectin comparison): 24 h | Cmax, plasma abamectin ([2]; oral 1 ml/5 kg, pooled mean of 8 sheep, both cross-over phases, abamectin comparison): 0.017 mg/kg | Degradation after reconstitution ([1]; reconstituted liquid concentrate of Example 9, storage at 20-25° C. for 4 days): no degradation
